According to ChEMBL document CHEMBL1155696, “Enhanced cytotoxicity in a Z-photoisomer of a benzopyran derivative of propolis” (J Nat Prod, 2000):
The source made the active and inactive calls. The calls are words filed in the database; no cut-off is given here.

Legend:
[1] = Cytotoxicity against human HLC2 cells after 3 days by WST8 dye reduction assay; type: functional, cell-based; settings: HLC2, 72 h
[2] = Cytotoxicity against human HLC2 cells after 6 days by WST8 dye reduction assay; type: functional, cell-based; settings: HLC2, 144 h
[3] = test system: HuH13; experiment: Cytotoxicity against human HuH13 cells; type: functional, cell-based
[4] = Photochemical stability exposed to visible light in methanol assessed as conversion to (Z)-2,2-Dimethyl-8-(3-methyl-2-butenyl)-benzopyran-6-propenoic acid after 7 days; settings: 168 h

Row | Activity [4] | Structure (SMILES) | IC50 [1] | IC50 [2] | Activity [3]
1 |  | CC(C)=CCc1cc(/C=C\C(=O)O)cc2c1OC(C)(C)C=C2 | 34 µM | 10 µM | Active
2 | 71% | CC(C)=CCc1cc(/C=C/C(=O)O)cc2c1OC(C)(C)C=C2 [CULIFOLIN] | 230 µM | 100 µM | Active
